We go through 8 molecules from patent US10316057B2, “Tandem facial amphiphiles” (WISCONSIN ALUMNI RESEARCH FOUNDATION, priority 2011, dated 2019).

The nature of data set [1]: Water solubility and hydrogel formation. The format is physicochemical. Here is the method:
(§1) TFA-0 forms a hydrogel at concentrations >0.4 wt %, and this compound was not studied further. The other three TFAs are soluble to 5-10 wt % in aqueous media. Critical micelle concentrations (CMC) were determined by monitoring solubilization of a hydrophobic fluorescent dye, […] (Chattopadhyay et al., Anal. Biochem. 1984, 139, 408-412), and the hydrodynamic radii (Rh) of the micelles were determined via dynamic light scattering (DLS). Table 1 compares the data for TFAs with those for DDM, a conventional detergent that is very widely used for MP applications; DDM and the TFAs share maltose as their hydrophilic moieties. CMC values of the three TFAs are smaller than that of DDM, whether CMC is measured in units of mM or wt %.
Several amphiphiles (TFA 1a-10a) were prepared and evaluated for their water solubility and critical micelle concentration (CMC). […] Examples of these TFAs include compounds of Formula VI: […]
These TFAs can be used to prepare hydrogels, which can be used tissue engineering or drug delivery applications. Examples of the generally water-insoluble TFAs include compounds of Formula XX: […]
(§2) Analysis of these TFAs for their CMC values provided the data in Table 3.

Data set [2] can be described thus: Critical micelle concentration by solubilization of a hydrophobic fluorescent dye. It counts as physicochemical.
Excerpt: The “Critical Micelle Concentration” (CMC) refers to the concentration of a detergent (e.g., an amphiphile as described herein) in an aqueous solution at which the detergent molecules self-assemble into micelles. Below the CMC, detergents are mostly monomeric; above the CMC, micelle concentration increases linearly with detergent concentration. The CMC is dependent upon many factors and is detergent-specific. The CMC of a detergent can be determined experimentally by measuring the solubilization of a water-insoluble dye or fluorophore while varying the concentration of detergent. A CMC may also be determined by measuring the diminution of the surface tension of an aqueous solution as a function of detergent concentration (CMCs determined by either method correlate with each other). The CMC is determined by extrapolating the plot of solubilization vs. concentration (or surface tension vs. concentration) in the two linear regions above and below the CMC. Where the two lines intersect is the CMC. The CMC can also be determined by the method of Nugebauer, J. M. (1990), Methods in Enzymology, 182:239-253.
as §1, §2

Data set [3] can be described thus: Hydrodynamic radii of micelles by dynamic light scattering (DLS). It counts as physicochemical. Conditions: 0.5 wt % amphiphile in water, 25° C.; mean ± SD, n = 3. As for the experimental part: as §1
Each TFA and DDM was dissolved in distilled, deionized (DI) water to obtain 1 mL of a solution containing 0.5 wt % amphiphile. Each solution was filtered through a 0.02 μm filter for DLS measurements. A 100-mW, 532-nm laser (Compass 315M-100, Coherent, Santa Clara, Calif.) illuminated a temperature-controlled glass cell at 25° C. that was filled with a refractive-index matching fluid (decahydronaphthalene, Fisher Scientific, Pittsburgh, Pa.). The scattered light was collected at an angle of 90° for about 30 minutes. Rh values were determined using the integrated dynamics software that analyzes the time scale of the scattered light intensity fluctuations by an autocorrelation function. The autocorrelation functions (ACFs) were obtained using a BI-9000AT digital autocorrelator (Brookhaven Instruments, Holtsville, N.Y.). Measurements were repeated three times.

Data set [4] relates to leucine transporter (LeuT WT). Kind of data set: LeuT functionality assay ([3H]-Leu binding by scintillation proximity assay). More on the design: species or system Aquifex aeolicus. Conditions: higher amphiphile concentration, CMC+0.2 wt %, room temperature. The source says: The wild type of bacterial leucine transporter (LeuT WT) was examined because the functional state of this membrane protein is readily assessed by using a scintillation proximity assay (SPA) (Quick et al., Proc. Natl. Acad. Sci. USA 2007, 104, 3603-3608) to monitor binding of radiolabelled leucine. LeuT was initially extracted with DDM and then diluted with amphiphile-containing solutions to generate final TFA concentrations of 0.04 wt % or 0.2 wt % (residual DDM=0.005 wt %). Control samples had 0.05 wt % or 0.2 wt % DDM (overall, the final concentrations were CMC+0.04 wt % or CMC+0.2 wt %).
The wild type of the leucine transporter (LeuT WT) from Aquifex aeolicus was expressed in Escherichia coli essentially as described by Deckert et al. (Nature 392, 353-358 (1998)). The pET16b-LeuT WT-8His plasmid was kindly provided by Dr. Eric Gouaux, Vollum Institute, Portland Oreg. LeuT WT was extracted from isolated bacterial membranes solubilized with 1% DDM, bound to Ni^2+-affinity Chelating Sepharose Fast Flow resin (GE Healthcare, USA), and eluted in buffer consisted of 20 mM Tris-HCl (pH 8.0), 1 mM NaCl, 199 mM KCl, 0.05% DDM and 300 mM imidazole. […] After incubation at room temperature, at the indicated time points, samples were centrifuged and the protein concentration was determined by absorbance measurements at 280 nm. Concomitantly, [^3H]-Leu binding was determined using scintillation proximity assay (SPA) (Quick and Javitch, Proc. Natl. Acad. Sci. USA 104, 3603-3608 (2007)), with the reaction mixture consisted of 5 μL from the respective samples, 33.3 nM [^3H]-Leu (PerkinElmer, USA) and copper chelate (His-Tag) YSi beads (GE Healthcare). […] Normalized results are expressed as mean±SEM (n=2), as illustrated in FIG. 11 (long-term solubility of LeuT WT incubated in the presence of TFA-1, TFA-3, and DDM at (a) CMC+0.04 wt % or (b) CMC+0.2 wt % at room temperature).
For orientation: Scintillation proximity formats need no separation of bound from free tracer.

SMILES strings stand for the structures. Counter-ions that a name gives are not always drawn.

On to `C[C@H](CCC(=O)NCCCNC(=O)CC[C@@H](C)[C@H]1CC[C@H]2[C@@H]3CC[C@@H]4C[C@H](O[C@@H]5O[C@H](CO)[C@@H](O[C@H]6O[C@H](CO)[C@@H](O)[C@H](O)[C@H]6O)[C@H](O)[C@H]5O)CC[C@]4(C)[C@H]3C[C@H](O[C@@H]3O[C@H](CO)[C@@H](O[C@H]4O[C@H](CO)[C@@H](O)[C@H](O)[C@H]4O)[C@H](O)[C@H]3O)[C@]12C)[C@H]1CC[C@H]2[C@@H]3CC[C@@H]4C[C@H](O[C@@H]5O[C@H](CO)[C@@H](O[C@H]6O[C@H](CO)[C@@H](O)[C@H](O)[C@H]6O)[C@H](O)[C@H]5O)CC[C@]4(C)[C@H]3C[C@H](O[C@@H]3O[C@H](CO)[C@@H](O[C@H]4O[C@H](CO)[C@@H](O)[C@H](O)[C@H]4O)[C@H](O)[C@H]3O)[C@]12C` [TFA-0], for which the “concentration at which a hydrogel forms” value in data set [1] (in water) is listed as over 0.4 wt %.

In the case of `CCN(CCCN(CC)C(=O)CC[C@@H](C)[C@H]1CC[C@H]2[C@@H]3CC[C@@H]4C[C@H](O[C@@H]5O[C@H](CO)[C@@H](O[C@H]6O[C@H](CO)[C@@H](O)[C@H](O)[C@H]6O)[C@H](O)[C@H]5O)CC[C@]4(C)[C@H]3C[C@H](O[C@@H]3O[C@H](CO)[C@@H](O[C@H]4O[C@H](CO)[C@@H](O)[C@H](O)[C@H]4O)[C@H](O)[C@H]3O)[C@]12C)C(=O)CC[C@@H](C)[C@H]1CC[C@H]2[C@@H]3CC[C@@H]4C[C@H](O[C@@H]5O[C@H](CO)[C@@H](O[C@H]6O[C@H](CO)[C@@H](O)[C@H](O)[C@H]6O)[C@H](O)[C@H]5O)CC[C@]4(C)[C@H]3C[C@H](O[C@@H]3O[C@H](CO)[C@@H](O[C@H]4O[C@H](CO)[C@@H](O)[C@H](O)[C@H]4O)[C@H](O)[C@H]3O)[C@]12C` [TFA-2], in data set [2] (mean ± SD, n = 3), the “CMC” value is 0.013 ± 0.0018 mM and the “CMC (wt %)” value is listed as 0.0028 ± 0.00039 wt %. The “Rh (nm), hydrodynamic radius of micelles measured by dynamic light scattering” value in data set [3] was found to be 2.0 ± 0.03 nm.

Take `CCCCN(CCCN(CCCC)C(=O)CC[C@@H](C)[C@H]1CC[C@H]2[C@@H]3CC[C@@H]4C[C@H](O[C@@H]5O[C@H](CO)[C@@H](O[C@H]6O[C@H](CO)[C@@H](O)[C@H](O)[C@H]6O)[C@H](O)[C@H]5O)CC[C@]4(C)[C@H]3C[C@H](O[C@@H]3O[C@H](CO)[C@@H](O[C@H]4O[C@H](CO)[C@@H](O)[C@H](O)[C@H]4O)[C@H](O)[C@H]3O)[C@]12C)C(=O)CC[C@@H](C)[C@H]1CC[C@H]2[C@@H]3CC[C@@H]4C[C@H](O[C@@H]5O[C@H](CO)[C@@H](O[C@H]6O[C@H](CO)[C@@H](O)[C@H](O)[C@H]6O)[C@H](O)[C@H]5O)CC[C@]4(C)[C@H]3C[C@H](O[C@@H]3O[C@H](CO)[C@@H](O[C@H]4O[C@H](CO)[C@@H](O)[C@H](O)[C@H]4O)[C@H](O)[C@H]3O)[C@]12C` [TFA-3]: in data set [2] (mean ± SD, n = 3), the “CMC” value came to 0.007 ± 0.0023 mM and the “CMC (wt %)” value turned out to be 0.0016 ± 0.00051 wt %. Besides, the “Rh (nm), hydrodynamic radius of micelles measured by dynamic light scattering” value in data set [3] amounted to 3.3 ± 0.12 nm. Further, the “maintaining LeuT WT function over 12 days” value in data set [4] is listed as “matched DDM at the lower concentration”.

Turning to `CC(CCC(=O)N(C)CCCN(C)C(=O)CCC(C)C1CCC2C3CCC4CC(OC5OC(CO)C(OC6OC(CO)C(O)C(O)C6O)C(O)C5O)CCC4(C)C3CC(OC3OC(CO)C(OC4OC(CO)C(O)C(O)C4O)C(O)C3O)C12C)C1CCC2C3CCC4CC(OC5OC(CO)C(OC6OC(CO)C(O)C(O)C6O)C(O)C5O)CCC4(C)C3CC(OC3OC(CO)C(OC4OC(CO)C(O)C(O)C4O)C(O)C3O)C12C` (centres unmarked) [TFA-4a], in data set [2] (Example 4, Table 3), the “CMC” value is reported as 0.014 mM and the “CMC (wt. %)” value worked out at 0.0030 wt. %.

As for `CC(CCC(=O)NCc1ccc(CNC(=O)CCC(C)C2CCC3C4CCC5CC(OC6OC(CO)C(OC7OC(CO)C(O)C(O)C7O)C(O)C6O)CCC5(C)C4CC(OC4OC(CO)C(OC5OC(CO)C(O)C(O)C5O)C(O)C4O)C23C)cc1)C1CCC2C3CCC4CC(OC5OC(CO)C(OC6OC(CO)C(O)C(O)C6O)C(O)C5O)CCC4(C)C3CC(OC3OC(CO)C(OC4OC(CO)C(O)C(O)C4O)C(O)C3O)C12C` (centres unmarked) [TFA-6a], in data set [1] (Example 4, under the conditions evaluated), the “water solubility” value is listed as “insoluble”.

In the case of `CCN(CCCN(CC)C(=O)CCC(C)C1CCC2C3CCC4CC(OC5OC(CO)C(OC6OC(CO)C(O)C(O)C6O)C(O)C5O)CCC4(C)C3CC(OC3OC(CO)C(OC4OC(CO)C(O)C(O)C4O)C(O)C3O)C12C)C(=O)CCC(C)C1CCC2C3CCC4CC(OC5OC(CO)C(OC6OC(CO)C(O)C(O)C6O)C(O)C5O)CCC4(C)C3CC(OC3OC(CO)C(OC4OC(CO)C(O)C(O)C4O)C(O)C3O)C12C` (centres unmarked) [TFA-7a], in data set [2] (Example 4, Table 3), the “CMC” value came out at 0.013 mM and the “CMC (wt. %)” value was 0.0028 wt. %.

On to `CCCCN(CCCN(CCCC)C(=O)CCC(C)C1CCC2C3CCC4CC(OC5OC(CO)C(OC6OC(CO)C(O)C(O)C6O)C(O)C5O)CCC4(C)C3CC(OC3OC(CO)C(OC4OC(CO)C(O)C(O)C4O)C(O)C3O)C12C)C(=O)CCC(C)C1CCC2C3CCC4CC(OC5OC(CO)C(OC6OC(CO)C(O)C(O)C6O)C(O)C5O)CCC4(C)C3CC(OC3OC(CO)C(OC4OC(CO)C(O)C(O)C4O)C(O)C3O)C12C` (centres unmarked) [TFA-9a], for which, in data set [2] (Example 4, Table 3), the “CMC” value came out at 0.01 mM and the “CMC (wt. %)” value came out at 0.0022 wt. %.

Regarding `CCCCCN(CCCN(CCCCC)C(=O)CCC(C)C1CCC2C3CCC4CC(OC5OC(CO)C(OC6OC(CO)C(O)C(O)C6O)C(O)C5O)CCC4(C)C3CC(OC3OC(CO)C(OC4OC(CO)C(O)C(O)C4O)C(O)C3O)C12C)C(=O)CCC(C)C1CCC2C3CCC4CC(OC5OC(CO)C(OC6OC(CO)C(O)C(O)C6O)C(O)C5O)CCC4(C)C3CC(OC3OC(CO)C(OC4OC(CO)C(O)C(O)C4O)C(O)C3O)C12C` (centres unmarked) [TFA-10a], in data set [2] (Example 4, Table 3), the “CMC” value is listed as 0.004 mM and the “CMC (wt. %)” value amounted to 0.0009 wt. %.
